Experimental data taken from patent publication US8969554B2, “6-acyl-1,2,4-triazine-3,5-dione derivative and herbicides” (Kumiai Chemical Industry Co., Ltd., priority 2010, dated 2015).

Assays:
Assay type in all cases: in vivo
Echinochloa oryzicola = experiment: Herbicidal activity by paddy field soil treatment (Test Example 1); parameters: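 index 0 to 10 in 10% steps of herbicidal effect with 10 meaning complete death and 0 below 10%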; conditions: 1000 g of effective component per hectare, evaluated on day 21 after the treatment, criteria of Table 72
Outline: (§1)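 Flooded-paddy pre-emergence assay at 1000 g a.i./ha, applied to the water surface one day after sowing; visual herbicidal score at day 21 in greenhouse.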

Monochoria vaginalis = experiment: as above; parameters: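 index 0 to 10 in 10% steps of herbicidal effect with 10 meaning complete death and 0 below 10%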; conditions: 1000 g of effective component per hectare, evaluated on day 21 after the treatment, criteria of Table 72
Outline: as §1

Scirpus juncoides Rocxb. = experiment: as above; parameters: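 index 0 to 10 in 10% steps of herbicidal effect with 10 meaning complete death and 0 below 10%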; conditions: applied on water surface, 1000 g of effective component per hectare, day 21 after the treatment
Outline: as §1

A. retroflexus [1] = experiment: Herbicidal activity by field soil treatment (Test example 2); parameters: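 index 0 to 10 in 10% steps of herbicidal effect with 10 meaning complete death and 0 below 10%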; conditions: 1000 g effective component per hectare, day 21 after the treatment
Outline: (§2)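 A wettable powder formulation, diluted with water, is applied to soil over just-sown seeds at an effective rate of 1000 g/ha. Effects are judged 21 days later after greenhouse growth.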

Echinochloa crus-galli [2] = experiment: as above; parameters: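 index 0 to 10 in 10% steps of herbicidal effect with 10 meaning complete death and 0 below 10%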; conditions: 1000 g effective component per hectare, day 21 after the treatment
Outline: as §2

Indian millet [3] = experiment: as above; parameters: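 index 0 to 10 in 10% steps of herbicidal effect with 10 meaning complete death and 0 below 10%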; conditions: 1000 g effective component per hectare, day 21 after the treatment
Outline: as §2

foxtail = experiment: as above; conditions: 1000 g effective component per hectare, day 21 after the treatment;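 note: index 0 to 10 in 10% steps of herbicidal effect with 10 meaning complete death and 0 below 10%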
Outline: as §2

A. retroflexus [4] = experiment: Herbicidal activity by field foliage treatment (Test example 3); parameters: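 index 0 to 10 in 10% steps of herbicidal effect with 10 meaning complete death and 0 below 10%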; conditions: 1000 g effective component per hectare, day 14 after the treatment
Outline: (§3)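 Test plants, grown from seed for two weeks in a greenhouse, are treated by foliar application of a wettable-powder formulation in water at a rate of 1000 g effective component per hectare. Damage is assessed 14 days later.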

Indian millet [5] = experiment: as above; parameters: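 index 0 to 10 in 10% steps of herbicidal effect with 10 meaning complete death and 0 below 10%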; conditions: 1000 g effective component per hectare, day 14 after the treatment
Outline: as §3

Echinochloa crus-galli [6] = experiment: as above; parameters: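 index 0 to 10 in 10% steps of herbicidal effect with 10 meaning complete death and 0 below 10%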; conditions: 1000 g effective component per hectare, day 14 after the treatment
Outline: (§4)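 Potted field-soil plants grown 2 weeks in a greenhouse were sprayed over the whole foliage with diluted wettable powder at 1000 L/ha, delivering 1000 g active ingredient per hectare. Herbicidal effect scored by visual criteria 14 days after treatment.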

Setaria viridis = experiment: as above; conditions: 1000 g effective component per hectare, day 14 after the treatment;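 note: index 0 to 10 in 10% steps of herbicidal effect with 10 meaning complete death and 0 below 10%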
Outline: as §4

CCc1ccccc1-n1c(=O)c(C(=O)C2=C(O)CCCC2=O)nn(C)c1=O [I-288]
9: herbicidal effect index, Abutilon theophrasti (Indian millet [3]) | herbicidal effect index, Setaria viridis (foxtail) | herbicidal effect index, Echinochloa crus-galli (Echinochloa crus-galli [6])
10: Herbicidal effects index number, Echinochloa oryzicola (Echinochloa oryzicola) | Herbicidal effects index number, Monochoria vaginalis (Monochoria vaginalis) | herbicidal effect index, S. juncoides Rocxb. (Scirpus juncoides Rocxb.) | herbicidal effect index, Amaranthus retroflexus (A. retroflexus [1]) | herbicidal effect index, Echinochloa crus-galli (Echinochloa crus-galli [2]) | herbicidal effect index, Amaranthus retroflexus (A. retroflexus [4]) | herbicidal effect index, Abutilon theophrasti (Indian millet [5]) | herbicidal effect index, Setaria viridis (Setaria viridis)

COCCCn1c(=O)c(C(=O)C2=C(O)CCCC2=O)nn(C)c1=O [I-41]
8: Herbicidal effects index number, Echinochloa oryzicola (Echinochloa oryzicola) | Herbicidal effects index number, Monochoria vaginalis (Monochoria vaginalis) | herbicidal effect index, Abutilon theophrasti (Indian millet [3])
10: herbicidal effect index, S. juncoides Rocxb. (Scirpus juncoides Rocxb.) | herbicidal effect index, Amaranthus retroflexus (A. retroflexus [1]) | herbicidal effect index, Amaranthus retroflexus (A. retroflexus [4]) | herbicidal effect index, Abutilon theophrasti (Indian millet [5]) | herbicidal effect index, Echinochloa crus-galli (Echinochloa crus-galli [6]) | herbicidal effect index, Setaria viridis (Setaria viridis)
9: herbicidal effect index, Echinochloa crus-galli (Echinochloa crus-galli [2])
7: herbicidal effect index, Setaria viridis (foxtail)

Cc1ncccc1-n1c(=O)c(C(=O)C2=C(O)CCCC2=O)nn(C)c1=O [I-277]
9: Herbicidal effects index number, Echinochloa oryzicola (Echinochloa oryzicola) | Herbicidal effects index number, Monochoria vaginalis (Monochoria vaginalis) | herbicidal effect index, Abutilon theophrasti (Indian millet [5]) | herbicidal effect index, Setaria viridis (Setaria viridis)
8: herbicidal effect index, Amaranthus retroflexus (A. retroflexus [1]) | herbicidal effect index, Echinochloa crus-galli (Echinochloa crus-galli [2]) | herbicidal effect index, Setaria viridis (foxtail)
7: herbicidal effect index, Abutilon theophrasti (Indian millet [3])
10: herbicidal effect index, S. juncoides Rocxb. (Scirpus juncoides Rocxb.) | herbicidal effect index, Amaranthus retroflexus (A. retroflexus [4]) | herbicidal effect index, Echinochloa crus-galli (Echinochloa crus-galli [6])

Cc1ccc(C(F)(F)F)cc1-n1c(=O)c(C(=O)C2=C(O)CCCC2=O)nn(C)c1=O [I-284]
7: herbicidal effect index, Setaria viridis (Setaria viridis)
10: Herbicidal effects index number, Echinochloa oryzicola (Echinochloa oryzicola) | Herbicidal effects index number, Monochoria vaginalis (Monochoria vaginalis) | herbicidal effect index, S. juncoides Rocxb. (Scirpus juncoides Rocxb.) | herbicidal effect index, Amaranthus retroflexus (A. retroflexus [1]) | herbicidal effect index, Echinochloa crus-galli (Echinochloa crus-galli [2])
9: herbicidal effect index, Abutilon theophrasti (Indian millet [3]) | herbicidal effect index, Amaranthus retroflexus (A. retroflexus [4]) | herbicidal effect index, Echinochloa crus-galli (Echinochloa crus-galli [6])
8: herbicidal effect index, Setaria viridis (foxtail) | herbicidal effect index, Abutilon theophrasti (Indian millet [5])

Cc1c(F)cccc1-n1c(=O)c(C(=O)C2=C(O)CCCC2=O)nn(C)c1=O [I-116]
8: herbicidal effect index, Amaranthus retroflexus (A. retroflexus [4])
10: Herbicidal effects index number, Echinochloa oryzicola (Echinochloa oryzicola) | Herbicidal effects index number, Monochoria vaginalis (Monochoria vaginalis) | herbicidal effect index, S. juncoides Rocxb. (Scirpus juncoides Rocxb.) | herbicidal effect index, Amaranthus retroflexus (A. retroflexus [1]) | herbicidal effect index, Echinochloa crus-galli (Echinochloa crus-galli [2]) | herbicidal effect index, Abutilon theophrasti (Indian millet [3])
9: herbicidal effect index, Setaria viridis (foxtail) | herbicidal effect index, Abutilon theophrasti (Indian millet [5]) | herbicidal effect index, Echinochloa crus-galli (Echinochloa crus-galli [6]) | herbicidal effect index, Setaria viridis (Setaria viridis)

Cn1nc(C(=O)C2=C(O)CCCC2=O)c(=O)n(-c2cccc([N+](=O)[O-])c2)c1=O [I-67]
10: Herbicidal effects index number, Echinochloa oryzicola (Echinochloa oryzicola) | Herbicidal effects index number, Monochoria vaginalis (Monochoria vaginalis) | herbicidal effect index, S. juncoides Rocxb. (Scirpus juncoides Rocxb.) | herbicidal effect index, Amaranthus retroflexus (A. retroflexus [1]) | herbicidal effect index, Echinochloa crus-galli (Echinochloa crus-galli [2]) | herbicidal effect index, Abutilon theophrasti (Indian millet [3]) | herbicidal effect index, Setaria viridis (foxtail) | herbicidal effect index, Amaranthus retroflexus (A. retroflexus [4]) | herbicidal effect index, Abutilon theophrasti (Indian millet [5]) | herbicidal effect index, Echinochloa crus-galli (Echinochloa crus-galli [6]) | herbicidal effect index, Setaria viridis (Setaria viridis)

Cn1nc(C(=O)C2=C(O)CCCC2=O)c(=O)n(-c2ccc(F)c(F)c2)c1=O [I-75]
10: Herbicidal effects index number, Echinochloa oryzicola (Echinochloa oryzicola) | Herbicidal effects index number, Monochoria vaginalis (Monochoria vaginalis) | herbicidal effect index, S. juncoides Rocxb. (Scirpus juncoides Rocxb.) | herbicidal effect index, Amaranthus retroflexus (A. retroflexus [1]) | herbicidal effect index, Abutilon theophrasti (Indian millet [3]) | herbicidal effect index, Amaranthus retroflexus (A. retroflexus [4]) | herbicidal effect index, Abutilon theophrasti (Indian millet [5]) | herbicidal effect index, Echinochloa crus-galli (Echinochloa crus-galli [6]) | herbicidal effect index, Setaria viridis (Setaria viridis)
7: herbicidal effect index, Setaria viridis (foxtail)
9: herbicidal effect index, Echinochloa crus-galli (Echinochloa crus-galli [2])

COc1ccc(-n2c(=O)c(C(=O)C3=C(O)CCCC3=O)nn(C)c2=O)cc1OC [I-93]
10: Herbicidal effects index number, Monochoria vaginalis (Monochoria vaginalis) | herbicidal effect index, S. juncoides Rocxb. (Scirpus juncoides Rocxb.) | herbicidal effect index, Amaranthus retroflexus (A. retroflexus [1]) | herbicidal effect index, Abutilon theophrasti (Indian millet [3]) | herbicidal effect index, Amaranthus retroflexus (A. retroflexus [4]) | herbicidal effect index, Abutilon theophrasti (Indian millet [5])
6: herbicidal effect index, Setaria viridis (foxtail)
8: Herbicidal effects index number, Echinochloa oryzicola (Echinochloa oryzicola)
7: herbicidal effect index, Echinochloa crus-galli (Echinochloa crus-galli [2])
9: herbicidal effect index, Echinochloa crus-galli (Echinochloa crus-galli [6]) | herbicidal effect index, Setaria viridis (Setaria viridis)

Cc1cccc(OC(F)(F)F)c1-n1c(=O)c(C(=O)C2=C(O)CCCC2=O)nn(C)c1=O [I-285]
10: Herbicidal effects index number, Echinochloa oryzicola (Echinochloa oryzicola) | Herbicidal effects index number, Monochoria vaginalis (Monochoria vaginalis) | herbicidal effect index, S. juncoides Rocxb. (Scirpus juncoides Rocxb.) | herbicidal effect index, Amaranthus retroflexus (A. retroflexus [1]) | herbicidal effect index, Echinochloa crus-galli (Echinochloa crus-galli [2]) | herbicidal effect index, Abutilon theophrasti (Indian millet [3]) | herbicidal effect index, Setaria viridis (foxtail)
7: herbicidal effect index, Abutilon theophrasti (Indian millet [5])
9: herbicidal effect index, Echinochloa crus-galli (Echinochloa crus-galli [6]) | herbicidal effect index, Setaria viridis (Setaria viridis)
8: herbicidal effect index, Amaranthus retroflexus (A. retroflexus [4])

Cn1nc(C(=O)C2=C(O)CCCC2=O)c(=O)n(-c2cccnc2Cl)c1=O [I-276]
9: herbicidal effect index, S. juncoides Rocxb. (Scirpus juncoides Rocxb.) | herbicidal effect index, Echinochloa crus-galli (Echinochloa crus-galli [2]) | herbicidal effect index, Setaria viridis (foxtail) | herbicidal effect index, Abutilon theophrasti (Indian millet [5])
10: herbicidal effect index, Amaranthus retroflexus (A. retroflexus [1]) | herbicidal effect index, Abutilon theophrasti (Indian millet [3]) | herbicidal effect index, Amaranthus retroflexus (A. retroflexus [4]) | herbicidal effect index, Echinochloa crus-galli (Echinochloa crus-galli [6]) | herbicidal effect index, Setaria viridis (Setaria viridis)
8: Herbicidal effects index number, Echinochloa oryzicola (Echinochloa oryzicola) | Herbicidal effects index number, Monochoria vaginalis (Monochoria vaginalis)

Cn1nc(C(=O)C2=C(O)CCCC2=O)c(=O)n(-c2ccccn2)c1=O [I-179]
9: herbicidal effect index, Amaranthus retroflexus (A. retroflexus [1])
10: Herbicidal effects index number, Echinochloa oryzicola (Echinochloa oryzicola) | Herbicidal effects index number, Monochoria vaginalis (Monochoria vaginalis) | herbicidal effect index, S. juncoides Rocxb. (Scirpus juncoides Rocxb.) | herbicidal effect index, Echinochloa crus-galli (Echinochloa crus-galli [2]) | herbicidal effect index, Abutilon theophrasti (Indian millet [3]) | herbicidal effect index, Setaria viridis (foxtail) | herbicidal effect index, Amaranthus retroflexus (A. retroflexus [4]) | herbicidal effect index, Abutilon theophrasti (Indian millet [5]) | herbicidal effect index, Echinochloa crus-galli (Echinochloa crus-galli [6]) | herbicidal effect index, Setaria viridis (Setaria viridis)

Cc1ccc(-n2c(=O)c(C(=O)C3=C(O)CCCC3=O)nn(C)c2=O)cn1 [I-289]
7: herbicidal effect index, Setaria viridis (foxtail) | herbicidal effect index, Setaria viridis (Setaria viridis)
9: herbicidal effect index, Echinochloa crus-galli (Echinochloa crus-galli [2]) | herbicidal effect index, Abutilon theophrasti (Indian millet [3]) | herbicidal effect index, Abutilon theophrasti (Indian millet [5]) | herbicidal effect index, Echinochloa crus-galli (Echinochloa crus-galli [6])
10: Herbicidal effects index number, Echinochloa oryzicola (Echinochloa oryzicola) | Herbicidal effects index number, Monochoria vaginalis (Monochoria vaginalis) | herbicidal effect index, S. juncoides Rocxb. (Scirpus juncoides Rocxb.) | herbicidal effect index, Amaranthus retroflexus (A. retroflexus [1]) | herbicidal effect index, Amaranthus retroflexus (A. retroflexus [4])
